Laboratory results published in patent publication US20150352022A1, “Cosmetic Compositions and Methods For Inhibiting Melanin Synthesis” (The Procter & Gamble Company, priority 2013, published 2015).

Test system: B16-F1 mouse melanoma cells
Assay: Melanin Synthesis Assay
Format: cell-based
Method: A B16-F1 mouse melanoma cell line may be employed as an assay to measure melanin synthesis. The B16-F1 cells may be obtained from American Tissue Culture Collection, Virginia, USA. The cell culture medium that may be used in the assay may comprise 500 mL of Dulbecco's Modified Eagle's Medium (DMEM), 50 mL Fetal Bovine Serum (FBS), and 5 mL of penicillin-streptomycin liquid. B16-F1 cells that are cultured in this medium and grown to greater than 90% confluency synthesize melanin. While not intending to be bound by any theory, it is hypothesized that melanin synthesis is stimulated by the culture medium and/or stress induced by growth to a high confluency. […] Equipment used in the assay include a CO2 incubator, such as a Forma Series Model 3110 by Therma Scientific, Massachusetts, USA; a hemocytometer, such as a Bright Line model by Hauser Scientific, Pennsylvania, USA; and a UV-Visible Spectrum Plate Reader, such as a SpectraMax250 from Molecular Devices, California, USA. […] Read the 96 well plate using the UV-Vis Plate Reader at 410 nm to optically measure the amount of melanin produced between wells that are treated with [test compound] and control wells that are not treated with a test compound. […] Percentage of melanin synthesis inhibition is calculated by the following equation: [formula] Where OD410 is the Optical Density at 410 nm as measured by the UV-Vis Spectrum Plate Reader. […]

CC(C)=CCC[C@](C)(O)[C@@H]1CC=C(C)CC1 [Sample 1, bisabolol]
Average Melanin % Inhibition (OD 410 nm, Bis 0.1%, HD 0.00056%, UP 0.00011%, Nia 0.00056% where present): 2.2%
reduction of the production of melanin as compared to Sample 4 (HD/UP/Nia) (statistical comparison versus Sample 4): did not significantly reduce
